Tested on: 435261-313-R-J1-PDC tumor spheroid viability
Test: Anticancer human tumor 435261-313-R-J1-PDC patient-derived colon adenocarcinoma cell line growth inhibition [PI3K]
Settings: spheroids with HUVEC and MSC; for IC50: curve of first compound; for viability, T/C: stronger effect = lower value
Source text: Combinatorial screen of targeted agents with the PI3K inhibitors inavolisib, alpelisib, duvelisib, and copanlisib in multi-cell type tumor spheroids
A high-throughput screen of multi-cell type tumor spheroids was designed to identify active combinations of targeted small molecules and PI3K pathway inhibitors. Complex spheroids include a stromal component modeled by human endothelial cells (HUVEC) and fibroblasts modeled by human mesenchymal stem cells (MSCs). The concentration ranges selected for each drug and investigational agent were based upon clinically achievable concentrations if the clinical Cmax of the agent was known.
Compounds. The drugs and investigational agents: inavolisib (NSC800729), alpelisib (NSC765974), duvelisib (NSC772469), copanlisib (NSC816437), ipatasertib (NSC767898), afuresertib (NSC778305), talazoparib (NSC767125), sapanisertib (NSC764658), selumetinib (NSC741078), tovorafenib (DAY101, NSC766906), vemurafenib (NSC761431), ravoxertinib (NSC781343), sotorasib (NSC818433), MRTX1133 (NSC 836407), abemaciclib (NSC 768073), palbociclib (NSC758247), venetoclax (NSC 766270), SY5609 (NSC837396), enzalutamide (NSC755605), and darolutamide (NSC825331), were obtained from the National Cancer Institute (NCI) Developmental Therapeutics Program Chemical Repository. The FDA-approved anticancer drug set is available from the NCI Developmental Therapeutics Program. […] The stock solutions were prepared in dimethyl sulfoxide (DMSO, Sigma-Aldrich, St. Louis, MO, cat. D2650) at 800-fold the tested concentration and stored at -70 degrees C prior to their use. All drugs and investigational agents were tested over a range starting from a high concentration at or near the clinical Cmax and decreasing in half-log increments. If the clinical Cmax for an agent had not been determined, the highest concentration tested was 10 microM.
Cell Culture. All cells were maintained in an incubator at 37 degrees C and 5% CO2 with 95% humidity. The PDC lines were cultured according to standard operating procedures established by the NCI PDMR (https://pdmr.cancer.gov/sops/default.htm). All PDCs were thawed and cultured in Matrigel-coated flasks prepared with a working solution of 1X Ham's F-12 nutrient mix, without supplementation (Invitrogen, Waltham, MA, cat. 11765054), 100 U/mL penicillin-streptomycin (Invitrogen, cat. 15140122), and 2.5% Matrigel (Corning Inc., Corning, NY, cat. 354248) for the first three passages. The 354836-022-R-J1-PDC, 475296-252-R-J1-PDC, and 997726-040-R-J2-PDC lines were cultured in 6A media, which includes advanced DMEM/F-12 (Thermo Fisher Scientific, cat. 12634028), 10 mM HEPES (Thermo Fisher Scientific, cat. 15630080), 1X GlutaMAX supplement (Thermo Fisher Scientific, cat. 35050061), 0.1 mg/mL primocin (InvivoGen, San Diego, CA, cat. ant-pm-2), 10% defined fetal bovine serum, heat inactivated (HyClone Laboratories Inc., Logan, UT, cat. SH30070.03HI), 50% L-WRN conditioned media (ATCC, cat. CRL-3276), 1.25 mM N-Acetyl-L-cysteine (Sigma-Aldrich, cat. A9165), 10 mM nicotinamide (Sigma-Aldrich, cat. N0636), 1X B-27 supplement (Thermo Fisher Scientific, cat. 17504044), 1X N-2 supplement (Thermo Fisher Scientific, cat. 17502048), and 10 microM Y-27632 dihydrochloride (Tocris Bioscience, Bristol, United Kingdom, cat. 1254). The 624824-186-R-J2-PDC line was cultured in 6C/Colon 1B media, which includes all 6A media components plus 50 ng/mL human EGF recombinant protein (Thermo Fisher Scientific, cat. PHG0311). […]

[1] = second compound 0.00316 µM, first compound 0.0316 µM
[2] = second compound 0.00316 µM, first compound 0.1 µM
[3] = second compound 0.01 µM, first compound 0.0316 µM
[4] = second compound 0.01 µM, first compound 0.1 µM
[5] = second compound 0.0316 µM, first compound 0.0316 µM
[6] = second compound 0.0316 µM, first compound 0.1 µM
[7] = second compound 0.1 µM, first compound 0.0316 µM
[8] = second compound 0.1 µM, first compound 0.1 µM
[9] = second compound 0.316 µM, first compound 0.0316 µM
[10] = second compound 0.316 µM, first compound 0.1 µM
[11] = second compound 1 µM, first compound 0.0316 µM
[12] = second compound 1 µM, first compound 0.1 µM

Molecule `CC(=O)c1c(C)c2cnc(Nc3ccc(N4CCNCC4)cn3)nc2n(C2CCCC2)c1=O` + CC(Nc1ccc2c(c1)OCCn1cc(N3C(=O)OCC3C(F)F)nc1-2)C(N)=O has an IC50 (second compound 0.00316 µM) of over 100 nM, an IC50 (second compound 0.01 µM) of over 100 nM and an IC50 (second compound 0.0316 µM) of 69.5 nM. For the same molecule, the IC50 (second compound 0.1 µM) was 0.458 nM, the IC50 (second compound 0.316 µM) was under 0.316 nM and the IC50 (second compound 1 µM) was under 0.316 nM. For the same molecule, the viability, T/C (second compound 0.00316 µM, first compound 0.000316 µM) was 78.8%, the viability, T/C (second compound 0.00316 µM, first compound 0.001 µM) was 91.4% and the viability, T/C (second compound 0.00316 µM, first compound 0.00316 µM) was 92.8%. For the same molecule, the viability, T/C (second compound 0.00316 µM, first compound 0.01 µM) was 82.7%, the viability, T/C [1] was 84.2% and the viability, T/C [2] was 59.2%. For the same molecule, the viability, T/C (second compound 0.01 µM, first compound 0.000316 µM) was 94.7%, the viability, T/C (second compound 0.01 µM, first compound 0.001 µM) was 83.6% and the viability, T/C (second compound 0.01 µM, first compound 0.00316 µM) was 100%. The viability, T/C (second compound 0.01 µM, first compound 0.01 µM) was 91.7%, the viability, T/C [3] was 87.5% and the viability, T/C [4] was 68.6%. For the same molecule, the viability, T/C (second compound 0.0316 µM, first compound 0.000316 µM) was 64.2%, the viability, T/C (second compound 0.0316 µM, first compound 0.001 µM) was 66.7% and the viability, T/C (second compound 0.0316 µM, first compound 0.00316 µM) was 76.9%. The viability, T/C (second compound 0.0316 µM, first compound 0.01 µM) was 86.2%, the viability, T/C [5] was 69.1% and the viability, T/C [6] was 40.4%. For the same molecule, the viability, T/C (second compound 0.1 µM, first compound 0.000316 µM) was 49.2%, the viability, T/C (second compound 0.1 µM, first compound 0.001 µM) was 52.7% and the viability, T/C (second compound 0.1 µM, first compound 0.00316 µM) was 38.8%. For the same molecule, the viability, T/C (second compound 0.1 µM, first compound 0.01 µM) was 32.5%, the viability, T/C [7] was 33.6% and the viability, T/C [8] was 23.6%. The viability, T/C (second compound 0.316 µM, first compound 0.000316 µM) was 21.7%, the viability, T/C (second compound 0.316 µM, first compound 0.001 µM) was 22% and the viability, T/C (second compound 0.316 µM, first compound 0.00316 µM) was 19.3%. For the same molecule, the viability, T/C (second compound 0.316 µM, first compound 0.01 µM) was 21.5%, the viability, T/C [9] was 20.5% and the viability, T/C [10] was 18.1%. It also gave a viability, T/C (second compound 1 µM, first compound 0.000316 µM) of 16.8%, a viability, T/C (second compound 1 µM, first compound 0.001 µM) of 17.1% and a viability, T/C (second compound 1 µM, first compound 0.00316 µM) of 17.7%. The viability, T/C (second compound 1 µM, first compound 0.01 µM) was 16.5%, the viability, T/C [11] was 18.2% and the viability, T/C [12] was 12.2%.
For `CC1(C)CCC(CN2CCN(c3ccc(C(=O)NS(=O)(=O)c4ccc(NCC5CCOCC5)c([N+](=O)[O-])c4)c(Oc4cnc5[nH]ccc5c4)c3)CC2)=C(c2ccc(Cl)cc2)C1` + COc1c(OCCCN2CCOCC2)ccc2c3n(c(=NC(=O)c4cnc(N)nc4)nc12)CCN3, the IC50 (second compound 0.00316 µM) was 4970 nM, the IC50 (second compound 0.01 µM) was 3250 nM and the IC50 (second compound 0.0316 µM) was under 31.6 nM. It also gave an IC50 (second compound 0.1 µM) of under 31.6 nM, an IC50 (second compound 0.316 µM) of under 31.6 nM and an IC50 (second compound 1 µM) of under 31.6 nM. For the same molecule, the viability, T/C [1] was 77.8%, the viability, T/C [2] was 65% and the viability, T/C (second compound 0.00316 µM, first compound 0.316 µM) was 59.7%. It also gave a viability, T/C (second compound 0.00316 µM, first compound 1 µM) of 66.4%, a viability, T/C (second compound 0.00316 µM, first compound 3.16 µM) of 92.9% and a viability, T/C (second compound 0.00316 µM, first compound 10 µM) of 15.3%. It also gave a viability, T/C [3] of 45.6%, a viability, T/C [4] of 41.2% and a viability, T/C (second compound 0.01 µM, first compound 0.316 µM) of 44%. For the same molecule, the viability, T/C (second compound 0.01 µM, first compound 1 µM) was 81%, the viability, T/C (second compound 0.01 µM, first compound 3.16 µM) was 49.6% and the viability, T/C (second compound 0.01 µM, first compound 10 µM) was 10%. It also gave a viability, T/C [5] of 25.2%, a viability, T/C [6] of 25.9% and a viability, T/C (second compound 0.0316 µM, first compound 0.316 µM) of 28.5%. The viability, T/C (second compound 0.0316 µM, first compound 1 µM) was 22.6%, the viability, T/C (second compound 0.0316 µM, first compound 3.16 µM) was 33.9% and the viability, T/C (second compound 0.0316 µM, first compound 10 µM) was 8.36%. It also gave a viability, T/C [7] of 16.8%, a viability, T/C [8] of 15.3% and a viability, T/C (second compound 0.1 µM, first compound 0.316 µM) of 14.9%. For the same molecule, the viability, T/C (second compound 0.1 µM, first compound 1 µM) was 13.9%, the viability, T/C (second compound 0.1 µM, first compound 3.16 µM) was 13.5% and the viability, T/C (second compound 0.1 µM, first compound 10 µM) was 5.88%. It also gave a viability, T/C [9] of 8.12%, a viability, T/C [10] of 8.36% and a viability, T/C (second compound 0.316 µM, first compound 0.316 µM) of 8.35%. It also gave a viability, T/C (second compound 0.316 µM, first compound 1 µM) of 7.93%, a viability, T/C (second compound 0.316 µM, first compound 3.16 µM) of 9.73% and a viability, T/C (second compound 0.316 µM, first compound 10 µM) of 4.39%. For the same molecule, the viability, T/C [11] was 4.19%, the viability, T/C [12] was 4.08% and the viability, T/C (second compound 1 µM, first compound 0.316 µM) was 4.61%. It also gave a viability, T/C (second compound 1 µM, first compound 1 µM) of 5.2%, a viability, T/C (second compound 1 µM, first compound 3.16 µM) of 6.19% and a viability, T/C (second compound 1 µM, first compound 10 µM) of 3.8%.
